According to patent US20220195059A1, “Rank Pathway Inhibitors in Combination with CDK Inhibitors” (INSTITUTO DE MEDICINA MOLECULAR JOÃO LOBO ANTUNES, priority 2019, published 2022):

Columns and labels:
Format in all cases: cell-based, human
[1] = system: RANK OE cells (MCF-7^OE, T47D^OE) and parental MCF-7, T47D cells; assay: Alamar blue viability assay, RANK OE luminal breast cancer cells vs parental counterparts; settings: for sensitivity of RANK OE cells to the drug (cell viability): RANK OE cells vs parental counterparts, drug alone
Method: (§1) Cells were seeded in 96 well-plates (2-5×10^4 cells/mL), with or without paclitaxel (Y0000698, Sigma), doxorubicin hydrochloride (D2975000, Sigma), palbociclib (PD 0332991 isethionate, PZ0199, Sigma), ribociclib (LEE011 succinate, SC-488174, Santa Cruz), abemaciclib mesylate (LY2835219, S7158, Selleckchem), fulvestrant (S1191, Selleckchem), everolimus (#73122, StemCell Technologies), full length human OPG (SRP3132, Sigma), and OPG-Fc (Amgen). Medium was replaced every 2 days. After 7 days, 1:10 Alamar blue (Invitrogen) was added to each well and fluorescence was measured 2 hours after incubation (excitation 560 nm; emission 590 nm) in an Infinite M200 microplate reader (Tecan).
In particular, RANK OE cells were tested for responsiveness to hormone therapy. Briefly, RANK OE cells were seeded in multi-well plates and exposed to fulvestrant for 7 days.
In this assay, however, RANK OE cells were exposed to a CDK 4/6 inhibitor alone or in combination with an inhibitor of the RANK pathway, in order to test the effect of blocking the RANK pathway in this context. Briefly, RANK OE cells were seeded in multi-well plates and exposed to palbociclib, ribociclib or abemaciclib alone or in combination with OPG-Fc for 7 days. Osteoprotegrin (OPG) is the physiologic soluble decoy receptor for RANK ligand (RANKL), and OPG-Fc is a fusion protein comprising only the four cysteine-rich domains of OPG (D1 to D4) fused with the Fc domain of an IgG1 antibody.
In this study, the CDK4/6 inhibitors palbociclib and ribociclib were exposed to RANK OE cells in combination with fulvestrant or everolimus. This combination therapy was then tested alone or in combination with OPG, an inhibitor of the RANK pathway. In this assay, the full-length OPG protein was used, in contrast to the previous example utilizing OPG-Fc.
To address this question, cell growth in the presence or absence of a CDK4 inhibitor was quantified. Briefly, cells were seeded in 96-well plates and exposed to two different drugs, CDK4 inhibitors, 3-ATA (FIG. 20A) or Cdk4 inhibitor Ill (FIG. 20B) for seven days. Medium was replaced every two days, and viability was assessed by Alamar blue assay. FIG. 20A provides the cell growth quantification in the presence of the CDK4 inhibitor 3-ATA and FIG. 20B provides the cell growth quantification in the presence of another CDK4 inhibitor, Cdk4 Inhibitor Ill. The results are the mean of at least three independent assays, with 4 replicates per assay, and presented as the mean±SEM. p-value was calculated using 2-way ANOVA, *p<0.05, **p<0.01, ***p<0.001.
To answer this question, cell growth in the presence of the pan-CDK inhibitor seliciclib (also known as roscovitine or CYC202) was analyzed. Briefly, cells were seeded in 96-well plates and exposed to different drugs for seven days. Medium was replaced every two days, and viability was assessed by Alamar blue assay.
(§2) Cells were seeded in 96 well-plates (2-5×10^4 cells/mL), with or without palbociclib (PD 0332991 isethionate, PZ0199, Sigma), ribociclib (LEE011 succinate, SC-488174, Santa Cruz), abemaciclib mesylate (LY2835219, S7158, Selleckchem), 3-ATA (sc-202414, Santa Cruz), Cdk4 inhibitor Ill (sc-202988, Santa Cruz), seliciclib (S1153, Selleckchem), and OPG-Fc (PL-33324, Amgen). Medium was replaced every 2 days. After 7 days, 1:10 Alamar blue (Invitrogen) was added to each well and fluorescence was measured 2 hours after incubation (excitation 560 nm; emission 590 nm) in an Infinite M200 microplate reader (Tecan).

[2] = system: TNBC cells (MDA-MB-231, MDA-MB-436, MDA-MB-468, MDA-MB-157, HCC1937, BT-20); assay: Alamar blue viability assay, TNBC cell lines with or without OPG-Fc; settings: 7 days
Method: as §1
Medium was replaced every two days, and viability was assessed by Alamar blue assay.
as §2

MDA-MB-231 TNBC cells = assay: Alamar blue viability assay, MDA-MB-231 TNBC cells with or without RANK knockdown; settings: 7 days
Method: For lentiviral transduction, MDA-MB-231GFP+Luc+ cells were seeded in 24-well plates, at a density of 4×10^4 cells/well. 24 hours after seeding, medium was replaced by fresh medium containing 8 μg/ml Polybrene (Sigma) and RANK shRNA (h) lentiviral particles (15-20 μl/well; sc-42960-V, Santa Cruz) or control shRNA lentiviral particles (15-20 μl/well; sc-108080, Santa Cruz). Cells were selected with 0.5 μg/mL Puromycin dihydrochloride (Sigma) starting three days after transduction.
as §1
RANK KD clones were first generated for use in sensitivity assays. Briefly, MCF-7GFP+Luc+ cells were seeded in multi-well plates and then exposed to fresh medium comprising RANK shRNA (h) lentiviral particles or control shRNA lentiviral particles. The transduced cells were selected using Puromycin dihydrochloride starting three days post-transduction.

For `C[C@]12CC[C@@H]3c4ccc(O)cc4C[C@@H](CCCCCCCCC[S+]([O-])CCCC(F)(F)C(F)(F)F)[C@H]3[C@@H]1CC[C@@H]2O` (stereo partly shown) [fulvestrant], the “sensitivity of RANK OE cells to the drug (cell viability)” value ([1]; 7 days) was “decreased sensitivity”.

`CC[C@H](CO)Nc1nc(NCc2ccccc2)c2ncn(C(C)C)c2n1` [seliciclib] was tested, and the “sensitivity of RANK OE cells to pan-CDK inhibitor” value ([1]; RANK OE cells vs parental (RANK low) cells, 7 days) was “less sensitive” and the “enhancement of the effect of palbociclib, or palbociclib plus OPG-Fc” value ([1]; RANK OE cells, 7 days) was “did not enhance”.

With `Nc1ccc2c(=S)c3ccccc3[nH]c2c1` [3-ATA, 3-Amino-9-thio(10H)-acridone] the “sensitivity of RANK OE cells to the drug (cell viability)” value ([1]; 7 days) was “resistant” and the “resistance of RANK OE cells to doses above 2.5 μM” value ([1]; RANK OE cells, 7 days) was “resistant to even higher doses”.

With `CN(C)C(=O)c1cc2cnc(Nc3ccc(N4CCNCC4)cn3)nc2n1C1CCCC1` [ribociclib] the “sensitivity of TNBC cells to CDK4/6 inhibitor (cell viability)” value [2] was “resistance”, the “sensitivity to CDK4/6 inhibitor (cell viability)” value (MDA-MB-231 TNBC cells; MDA-231 cells and MDA-231 shControl cells) was “resistance” and the “sensitivity to CDK4/6 inhibitor (cell viability)” value (MDA-MB-231 TNBC cells; TNBC RANK KD cells (MDA-231 shRANK) vs RANK expressing cells) was “restored sensitivity”. For the same molecule, the “sensitivity of RANK OE cells to the drug (cell viability)” value ([1]; 7 days) was “decreased sensitivity”.

For `Cc1ccc(NC2=CC(=O)c3sc(C)nc3C2=O)cc1` [Cdk4 inhibitor Ill, 5-(N-(4-Methylphenyl)amino)-2-methyl-4,7-dioxobenzothiazole], the “sensitivity of RANK OE cells to the drug (cell viability)” value ([1]; 7 days) was “resistant”.

`CCN1CCN(Cc2ccc(Nc3ncc(F)c(-c4cc(F)c5nc(C)n(C(C)C)c5c4)n3)nc2)CC1` [abemaciclib] was tested, and the “sensitivity of TNBC cells to CDK4/6 inhibitor (cell viability)” value [2] was “resistance” and the “sensitivity of RANK OE cells to the drug (cell viability)” value ([1]; 7 days) was “decreased sensitivity”.

B1: OPG: full-length OPG protein, soluble decoy receptor for RANK ligand (protein, UniProt O00300 1-401, looked up)
chain: MNNLLCCALVFLDISIKWTTQETFPPKYLHYDEETSHQLLCDKCPPGTYLKQHCTAKWKTVCAPCPDHYYTDSWHTSDECLYCSPVCKELQYVKQECNRTHNRVCECKEGRYLEIEFCLKHRSCPPGFGVVQAGTPERNTVCKRCPDGFFSNETSSKAPCRKHTNCSVFGLLLTQKGNATHDNICSGNSESTQKCGIDVTLCEEAFFRFAVPTKFTPNWLSVLVDNLPGTKVNAESVERIKRQHSSQEQTFQLLKLWKHQNKDQDIVKKIIQDIDLCENSVQRHIGHANLTFEQLRSLMESLPGKKVGAEDIEKTIKACKPSDQILKLLSLWRIKNGDQDTLKGLMHALKHSKTYHFPKTVTQSLKKTIRFLHSFTMYKLYQKLFLEMIGNQVQSVKISCL
modifications: full-length
notes: full-length OPG protein, soluble decoy receptor for RANK ligand
In the case of B1, the “sensitivity of RANK OE cells to CDK4/6 inhibitor combination therapy when further combined with OPG” value ([1]; full-length OPG added to palbociclib or ribociclib plus fulvestrant or everolimus) is reported as “restored”.
